# Test results as given in ChEMBL document CHEMBL5335775, “Bioisosteric replacement of 1H-1,2,3-triazole with 1H-tetrazole ring enhances anti-leukemic activity of (5-benzylthiazol-2-yl)benzamides” (Eur J Med Chem, 2023).
# The source made the active and inactive calls. The rule behind the calls is not given here.
# Columns and labels:
# KM12 = test: Inhibition of cell growth in human KM12 cells incubated for 48 hrs by SRB assay; assay type: functional, cell-based; conditions: KM12, 48 h
# UACC-62 [1] = test: Inhibition of cell growth in human UACC-62 cells incubated for 48 hrs by SRB assay; assay type: functional, cell-based; conditions: UACC-62, 48 h
# M14 [2] = test: Anticancer activity against human M14 cells assessed as cell growth at 10^-5 M incubated for 48 hrs by SRB assay relative to control; assay type: functional; conditions: M14, 48 h, dose 1 10^-5M, read-out: Activity
# NCI-H460 [3] = test: Anticancer activity against human NCI-H460 cells assessed as cell growth at 10^-5 M incubated for 48 hrs by SRB assay relative to control; assay type: functional; conditions: NCI-H460, 48 h, dose 1 10^-5M, read-out: Activity
# K562 [4] = test: Inhibition of cell growth in human K562 cells incubated for 48 hrs by SRB assay; assay type: functional, cell-based; conditions: K562, 48 h
# K562 [5] = test: Induction of pro-apoptotic morphological changes in human K562 cells at 70 nM incubated for 24 hrs by Hoescht-33342 staining based analysis; assay type: functional, cell-based
# MCF7 = test: Anticancer activity against human MCF7 cells assessed as cell growth at 10^-5 M incubated for 48 hrs by SRB assay relative to control; assay type: functional; conditions: MCF7, 48 h, dose 1 10^-5M, read-out: Activity
# K562 [6] = test: Induction of pro-apoptotic morphological changes in human K562 cells assessed as nucleus fragmentation at 700 nM incubated for 24 hrs by Hoescht-33342 staining based analysis; assay type: functional, cell-based
# T47D [7] = test: Anticancer activity against human T47D cells assessed as cell growth at 10^-5 M incubated for 48 hrs by SRB assay relative to control; assay type: functional; conditions: dose 1 10^-5M, read-out: Activity
# [8] = Antiproliferative activity against NIH3T3 cells assessed as inhibition of cell proliferation measured after 72 hrs by MTT assay; assay type: toxicity, cell-based; conditions: mouse
# HCT-15 = test: Inhibition of cell growth in human HCT-15 cells incubated for 48 hrs by SRB assay; assay type: functional, cell-based; conditions: HCT-15, 48 h
# CAKI-1 = test: Inhibition of cell growth in human CAKI-1 cells incubated for 48 hrs by SRB assay; assay type: functional, cell-based; conditions: CAKI-1, 48 h
# [9] = Antiproliferative activity against human HaCaT cells assessed as inhibition of cell proliferation measured after 72 hrs by MTT assay; assay type: toxicity, cell-based
# K562 [10] = test: Induction of DNA damage in human K562 cells assessed as olive tail moment level at 70 nM incubated for 24 hrs by comet assay (reference value: 0.2); assay type: functional
# NCI-H522 = test: Anticancer activity against human NCI-H522 cells assessed as cell growth at 10^-5 M incubated for 48 hrs by SRB assay relative to control; assay type: functional; conditions: NCI-H522, 48 h, dose 1 10^-5M, read-out: Activity
# K562 [11] = test: Induction of DNA damage in human K562 cells assessed as fold increase in olive tail moment at 70 to 700 nM incubated for 24 hrs by comet assay relative to control; assay type: functional; conditions: dose 70-700 nM
# K562 [12] = test: Induction of DNA damage in human K562 cells assessed as tail DNA level at 70 nM incubated for 24 hrs by comet assay (reference value: 0.5 to 0.6 %); assay type: functional
# M14 [13] = test: Inhibition of cell growth in human M14 cells incubated for 48 hrs by SRB assay; assay type: functional, cell-based; conditions: M14, 48 h
# T47D [14] = test: Inhibition of cell growth in human T47D cells incubated for 48 hrs by SRB assay; assay type: functional, cell-based
# SF-295 = test: Anticancer activity against human SF-295 cells assessed as cell growth at 10^-5 M incubated for 48 hrs by SRB assay relative to control; assay type: functional; conditions: SF-295, 48 h, dose 1 10^-5M, read-out: Activity
# LOX IMVI [15] = test: Anticancer activity against human LOX IMVI cells assessed as cell growth at 10^-5 M incubated for 48 hrs by SRB assay relative to control; assay type: functional; conditions: dose 1 10^-5M, read-out: Activity
# NCI-H460 [16] = test: Inhibition of cell growth in human NCI-H460 cells incubated for 48 hrs by SRB assay; assay type: functional, cell-based; conditions: NCI-H460, 48 h
# K562 [17] = test: Induction of pro-apoptotic morphological changes in human K562 cells assessed as formation of apoptotic bodies at 700 nM incubated for 24 hrs by Hoescht-33342 staining based analysis; assay type: functional, cell-based
# UACC-62 [18] = test: Anticancer activity against human UACC-62 cells assessed as cell growth at 10^-5 M incubated for 48 hrs by SRB assay relative to control; assay type: functional; conditions: UACC-62, 48 h, dose 1 10^-5M, read-out: Activity
# K562 [19] = test: Induction of DNA damage in human K562 cells assessed as fold increase in tail DNA level at 70 to 700 nM incubated for 24 hrs by comet assay relative to control; assay type: functional; conditions: dose 70-700 nM
# [20] = Antiproliferative activity against J774.2 cells assessed as inhibition of cell proliferation measured after 72 hrs by MTT assay; assay type: toxicity, cell-based; conditions: mouse
# K562 [21] = test: Anticancer activity against human K562 cells assessed as cell growth at 10^-5 M incubated for 48 hrs by SRB assay relative to control; assay type: functional; conditions: K562, 48 h, dose 1 10^-5M, read-out: Activity
# SW-620 = test: Inhibition of cell growth in human SW-620 cells incubated for 48 hrs by SRB assay; assay type: functional, cell-based; conditions: SW-620, 48 h
# K562 [22] = test: Induction of DNA damage in human K562 cells assessed as olive tail moment level at 700 nM incubated for 24 hrs by comet assay (reference value: 0.2); assay type: functional
# K562 [23] = test: Antiproliferative activity against human K562 cells assessed as inhibition of cell proliferation measured after 72 hrs by MTT assay; assay type: functional, cell-based; conditions: K562, 72 h
# K562 [24] = test: Induction of pro-apoptotic morphological changes in human K562 cells assessed as cell shrinkage at 700 nM incubated for 24 hrs by Hoescht-33342 staining based analysis; assay type: functional
# K562 [25] = test: Induction of pro-apoptotic morphological changes in human K562 cells assessed as formation of cytoplasmic blebs at 700 nM incubated for 24 hrs by Hoescht-33342 staining based analysis; assay type: functional, cell-based
# [26] = Selectivity index, ratio of IC50 for […] to IC50 for human K562 cells; assay type: functional
# UACC-257 = test: Anticancer activity against human UACC-257 cells assessed as cell growth at 10^-5 M incubated for 48 hrs by SRB assay relative to control; assay type: functional; conditions: UACC-257, 48 h, dose 1 10^-5M, read-out: Activity
# LOX IMVI [27] = test: Inhibition of cell growth in human LOX IMVI cells incubated for 48 hrs by SRB assay; assay type: functional, cell-based
# SK-MEL-5 = test: Anticancer activity against human SK-MEL-5 cells assessed as cell growth at 10^-5 M incubated for 48 hrs by SRB assay relative to control; assay type: functional; conditions: SK-MEL-5, 48 h, dose 1 10^-5M, read-out: Activity
# K562 [28] = test: Induction of DNA damage in human K562 cells assessed as tail DNA level at 700 nM incubated for 24 hrs by comet assay (reference value: 0.5 to 0.6 %); assay type: functional
compound,measurement,setting,value
O=C(Nc1ncc(Cc2ccc(F)cc2)s1)c1ccc(-n2cnnn2)cc1,IC50,KM12,927 nM
same,IC50,UACC-62 [1],56.9 nM
same,growth at 10 µM,M14 [2],34.3%
same,growth at 10 µM,NCI-H460 [3],25.5%
same,IC50,K562 [4],56.4 nM
same,Activity,K562 [5],inactive
same,growth at 10 µM,MCF7,34.4%
same,Activity,K562 [6],Active
same,growth at 10 µM,T47D [7],23.2%
same,IC50 at 72 h,[8],> 100000 nM
same,IC50,HCT-15,347 nM
same,IC50,CAKI-1,772 nM
same,IC50 at 72 h,[9],> 100000 nM
same,Activity,K562 [10],0.5
same,growth at 10 µM,NCI-H522,36.5%
same,fold change (FC),K562 [11],2
same,Activity,K562 [12],1.1%
same,IC50,M14 [13],261 nM
same,IC50,T47D [14],896 nM
same,growth at 10 µM,SF-295,25.9%
same,growth at 10 µM,LOX IMVI [15],26.3%
same,IC50,NCI-H460 [16],993 nM
same,Activity,K562 [17],Active
same,growth at 10 µM,UACC-62 [18],19.2%
same,fold change (FC),K562 [19],2
same,IC50 at 72 h,[20],70700 nM
same,growth at 10 µM,K562 [21],23.2%
same,IC50,SW-620,118 nM
same,Activity,K562 [22],1.4
same,IC50,K562 [23],700 nM
same,Activity,K562 [24],Active
same,Activity,K562 [25],Active
same,Ratio IC50,[26],101
same,growth at 10 µM,UACC-257,32%
same,IC50,LOX IMVI [27],206 nM
same,growth at 10 µM,SK-MEL-5,10.6%
same,Activity,K562 [28],5.1%
